Calls of active or inactive are those of the source. No cut-off for these calls is given here.
Experiments:
[1] = tested on: Solanum lycopersicum; assay: Induction of systemic acquired resistance activity in Botrytis cinerea infected Solanum lycopersicum (tomato) leaves assessed as increase in H2O2 level at 0.3 mM applied as spray 24 hr prior to inoculation measured after 2 to 6 hr relative to untreated infected control; assay type: functional, organism-based
[2] = tested on: Solanum lycopersicum; assay: Phytotoxicity in Solanum lycopersicum (tomato) at 0.3 mM applied as spray; assay type: organism-based; conditions: in vivo, other, 300 µM
[3] = tested on: Solanum lycopersicum; assay: Induction of systemic acquired resistance activity in Botrytis cinerea infected Solanum lycopersicum (tomato) leaves assessed as visible lesions on leaf surface at 0.3 mM applied as spray 24 hr prior to inoculation measured after 14 days (reference value: 66%); assay type: functional
[4] = tested on: Solanum lycopersicum; assay: (§1) Induction of systemic acquired resistance activity in Botrytis cinerea infected Solanum lycopersicum (tomato) leaves assessed as increase in guaiacol peroxidase activity at 0.3 mM applied as spray 24 hr prior to inoculation measured after 6 to 48 hr by colorimetric assay relative to untreated infected control; assay type: functional, organism-based
[5] = tested on: Solanum lycopersicum; assay: Induction of systemic acquired resistance activity in Botrytis cinerea infected Solanum lycopersicum (tomato) leaves assessed as increase in H2O2 level at 0.3 mM applied as spray 24 hr prior to inoculation measured after 2 to 6 hr relative to untreated control; assay type: functional, organism-based
[6] = tested on: Solanum lycopersicum; assay: as §1, with “untreated” for “untreated infected”; assay type: functional, organism-based
[7] = tested on: Solanum lycopersicum; assay: Induction of systemic acquired resistance activity in Botrytis cinerea infected Solanum lycopersicum (tomato) leaves assessed as induction of superoxide anion radical generation at 0.3 mM applied as spray 24 hr prior to inoculation measured after 2 to 6 hr by nitro blue tetrazolium reduction assay relative to control; assay type: functional, organism-based
[8] = tested on: Solanum lycopersicum; assay: Induction of systemic acquired resistance activity in Solanum lycopersicum (tomato) leaves assessed as decrease in hydroxyl radical generation at 0.3 mM applied as spray 24 hr prior to inoculation measured after 2 to 48 hr by TBARS assay relative to untreated control; assay type: functional, organism-based

## CSC(=O)c1cccc2nnsc12 [ACIBENZOLAR-S-METHYL]
[1]
  Activity: Active
[2]
  Activity: Non-toxic
[3]
  Activity: 27%
[4]
  Activity: Active
[5]
  Activity: Active
[6]
  Activity: Active
[7]
  Activity: Active
[8]
  Activity: Active

Reference: ChEMBL document CHEMBL3044694, “Induction of disease resistance by acibenzolar-S-methyl and o-hydroxyethylorutin against Botrytis cinerea in tomato plants” (Crop Prot, 2006)
